This note sets out measurements from patent publication US20160375019A1, “TREATMENT OF CHRONIC GRAFT VERSUS HOST DISEASE WITH SYK INHIBITORS” (Gilead Sciences, Inc., priority 2015, published 2016).

The subject of one data set is hepatocytes. The class given is in vitro ADME. As to conditions: human. Here is the method: The human […] stability of the compounds as predicted hepatocyte clearance in L/hr/kg was assessed. Compounds to be tested were diluted to 200 μM (4 μl of 10 mM DMSO stock into 196 μl ACN:H2O (50:50). Propranolol was used as a positive control, and buffer only without hepatocytes as 0% control. These were further diluted 4 μl with 891 μl KHB buffer (InVitroGRO catalog number Z99074) to provide 2× dosing solution. To each well of 24 well plate, 250 μl of the 2× dosing solution was added to each well with 250 μl of hepatocytes cells (1×10^6 viable cells/ml per well) or KHB for control samples to achieve a final compound concentration of 1 μM during incubation. The final solvent concentration was 0.01% DMSO and 0.25% ACN. The culture plate was placed on a rocker and incubated at 37° C., 5% CO2. Samples were collected at time 0, 1, 3, and 6 hours. The loss of parent compound was determined using LC-MS methods against a standard curve.

Data set [1] can be described thus: Kinetic Solubility in phosphate buffer at pH 7.4. As to conditions: 37 °C, aqueous buffer, kinetic from dmso stock; phosphate buffer pH 7.4. Type of data set: physicochemical. Here is the method: The kinetic solubility of compounds in phosphate buffer at pH 7.4 was assessed. The compounds to be tested were dissolved in dimethylsulfoxide at a 10 mM concentration. Stock samples were diluted, 3 μl with 297 μl of the phosphate buffer at pH 7.4 (DulBecco's phosphate buffered saline (Sigma-Aldrich D8662), overall molarity is 0.149 M and pH 7.43). The samples were then incubated for 24 hours at 37° C. with shaking, the centrifuged and an aliquot taken and tested relative to a known standard concentration of 0.1 mM.

The subject of data set [2] is basophils (CD63 expression) in human whole blood. Kind of data set: 384-well HTBS Whole Blood CD63 Basophil Assay. As to conditions: human whole blood (25% blood); comparison table. Type of data set: cell-based. Here is the method:
Syk activity was assessed in relation to reduced activation of basophils as measured by the expression of CD63 in a human whole blood basophil cellular assay (25% blood). Basophil activation was measured in human whole blood using the Flow CAST kit (Buhlmann Laboratories AG, Baselstrasse, Switzerland) following the protocol provided by the manufacturer with minor modifications. Fresh human whole blood in heparin was collected and delivered same day (AllCells, Emeryville, Calif.). Whole blood samples were incubated with either DMSO (1% final) or serial diluted compounds in DMSO for 60 minutes at 37° C. Basophils were activated using the anti-FceRI mAb and stained with anti-CD63-FITC and anti-CCR3-PE for 20 minutes at 37° C. (per well: 50 μL of whole blood was mixed with 113 μL of stimulation buffer, 8.5 μL anti-FceRI mAb, 8.5 μL Ab stain CCR3-PE/CD63-FITC). Cells were centrifuged at 1000×g for 18 minutes and 150 μL/well of supernatant removed. Red blood cells were lysed and cells fixed by 2 rounds of cell lysing: resuspending cell pellets with 150 μL/well 1× lysis buffer, incubating at room temperature for 10 minutes, and collecting cell pellets by centrifuging for 1200 rpms for 5 minutes. Cells were washed with 150 μL/well wash buffer twice, and resuspended in a final volume of 75 μL/well of wash buffer for either immediate flow cytometery analysis or overnight incubation at 4° C. followed by flow cytometry analysis. Degranulation (basophil activation) was detected by CD63 surface expression on CCR3 positive cells. The percent CD63 positive cells within the gated basophil population were determined and normalized to the DMSO (negative control) and control compound (positive control).

The subject of data set [3] is B cells (CD19+) in PBMCs from cGVHD and inactive cGVHD subjects. Kind of data set: Apoptosis Assay: B cells in PBMCs from subjects with active or inactive cGVHD, flow cytometry. Type of data set: cell-based, human. The conditions noted are these: 48 hours. On the procedure: Entospletinib (Formula I) was prepared as a 10 mM stock in dimethyl sulfoxide (DMSO). Before use, entospletinib was thawed from 10 mM DMSO stocks frozen in 0.75 mL polypropylene tubes at −20° C.
For untreated PBMCs, DMSO alone (the diluent used to generate entospletinib stock solution) was used in the cultures at the equivalent volume as for the 1.0 μM entospletinib treatment group. The cells were then incubated for 48 hr at 37° C. and 5% CO2, harvested, and assessed for the frequency of apoptotic B cells by flow cytometry analysis as described below.
Flow Cytometry Analysis—Cultured PBMCs were washed in FACS wash buffer (PBS containing 2% FBS) and then resuspended in FACS wash containing Fc block (Human TruStain FcXTM Fc Receptor Blocking Solution from BioLegend, San Diego, Calif.) at the recommended concentration. Following a 15 minute incubation on ice, the cells were stained with Pacific Blue™ conjugated anti-human CD19 antibody (BioLegend, Inc.) for an additional 30 min and then washed in cold PBS, followed by a second wash with Annexin V Binding Buffer (Annexin V Apoptosis Detection Kit-APC, eBioscience, Inc.) according to the manufacturer's instructions. The cells were then resuspended in Annexin V Binding Buffer containing APC-conjugated Annexin V, and incubated in the dark for 15 min at RT. Finally, the cells were washed with cold Annexin V Binding Buffer, resuspended in cold Annexin V Binding Buffer containing 7-AAD (BD Biosciences), kept on ice, and analyzed immediately on a FACSCantoTM flow cytometer. Flow cytometry data files were analyzed using FlowJo software (version X) to identify B cells and determine the frequencies of apoptotic cells based on Annexin V and 7-AAD staining.
For each set of patient samples, B cell apoptosis induced by entospletinib at each concentration was determined by the following ratio: % Annexin V^+/7-AAD^− B cells (entospletinib-treated)/% Annexin V^+/7-AAD^− B cells (untreated). […] Graphic display and curve fit analysis to determine the EC50 for entospletinib apoptosis-inducing activity in active cGVHD B cells was performed using GraphPad Prism software (GraphPad Software, La Jolla, Calif).
A general note: A flow cytometer gives signals particle by particle.

Molecules are shown by their SMILES.

Compound `COc1ccc(Nc2nc(-c3ccc(N)nc3)cn3ccnc23)cc1OC` [6-(6-aminopyridin-3-yl)-N-(3,4-dimethoxyphenyl)imidazo[1,2-a]pyrazin-8-amine, reference compound] returned a Hheps CL in the data set on hepatocytes of 15 mL/min/kg.

As to `Nc1cncc(-c2cn3ccnc3c(Nc3ccc(N4CCN(C5COC5)CC4)cc3)n2)n1` [Ex.-2, 6-(6-aminopyrazin-2-yl)-N-(4-(4-(oxetan-3-yl)piperazin-1-yl)phenyl)imidazo[1,2-a]pyrazin-8-amine], the Hheps CL in the data set on hepatocytes stood at 0.917 mL/min/kg. Further, the solubility (kinetic) at 24 h in data set [1] is > 90 µM.

Compound `Nc1cncc(-c2cn3ccnc3c(Nc3ccc(N4CCOCC4)cc3)n2)c1` [6-(5-aminopyridin-3-yl)-N-(4-morpholinophenyl)imidazo[1,2-a]pyrazin-8-amine, reference compound] came in with a Hheps CL in the data set with hepatocytes of 11.3 mL/min/kg.

In the case of `COc1ccc(Nc2nc(-c3cccc(N)c3)cn3ccnc23)cc1OC` [6-(3-aminophenyl)-N-(3,4-dimethoxyphenyl)imidazo[1,2-a]pyrazin-8-amine, reference compound], the Hheps CL in the data set with hepatocytes is 4 mL/min/kg. This compound also displayed an IC50 in data set [2] of 809 nM.

For `c1cn2cc(-c3ccc4cn[nH]c4c3)nc(Nc3ccc(N4CCOCC4)cc3)c2n1` [Entospletinib, 6-(1H-indazol-6-yl)-N-(4-morpholinophenyl)imidazo[1,2-a]pyrazin-8-amine], the “B cell apoptosis, one subject with cGVHD with low level of baseline apoptosis” value in data set [3] (1.0-0.0078 μM) is “dose-dependent increase in B cell apoptosis”. Moreover, in data set [3] (1.0-0.0078 μM), the “B cell apoptosis, other two cGVHD subjects with higher baseline level of apoptosis” value is recorded as “caused an increase in B cell apoptosis”. For the same compound, in data set [3] (1.0-0.0078 μM), the “apoptosis of B cells obtained from subjects with cGVHD” value is on record as “caused apoptosis of B cells”. In data set [3] (>125 nM ENTO, mean of 3 donors), the “B cell apoptosis in cGVHD samples versus subjects without cGVHD” value is “statistically significant dose-dependent increase in B cell apoptosis”. The “Annexin V+/7AAD− (frequency of parent)” value in data set [3] (Inactive #1, 7.8 nM) is 47.7; in data set [3] (Inactive #1, 15.6 nM), 45.7; in data set [3] (Inactive #1, 31.3 nM), 46.6; in data set [3] (Inactive #1, 62.5 nM), 47.5; in data set [3] (Inactive #1, 125 nM), 53.4; in data set [3] (Inactive #1, 250 nM), 51.3. Moreover, the “Annexin V+/7AAD− (frequency of parent)” value in data set [3] (Inactive #1, 500 nM) is 48.7; in data set [3] (Inactive #1, 1000 nM) it was 44.4; in data set [3] (Inactive #2, 7.8 nM), 41.5; in data set [3] (Inactive #2, 15.6 nM), 39.8; in data set [3] (Inactive #2, 31.3 nM), 43.9; in data set [3] (Inactive #2, 62.5 nM) it was 42.2. The “Annexin V+/7AAD− (frequency of parent)” value in data set [3] (Inactive #2, 125 nM) is given as 43.2; in data set [3] (Inactive #2, 250 nM), 44.9; in data set [3] (Inactive #2, 500 nM), 50.2; in data set [3] (Inactive #2, 1000 nM), 50.4; in data set [3] (Inactive #3, 7.8 nM) it was 50.4; in data set [3] (Inactive #3, 15.6 nM), 51.2. The “Annexin V+/7AAD− (frequency of parent)” value in data set [3] (Inactive #3, 31.3 nM) worked out at 51.7; in data set [3] (Inactive #3, 62.5 nM) it was 52.1; in data set [3] (Inactive #3, 125 nM), 52.4; in data set [3] (Inactive #3, 250 nM), 56.2; in data set [3] (Inactive #3, 500 nM), 57.1; in data set [3] (Inactive #3, 1000 nM), 55.6. The “Annexin V+/7AAD− (frequency of parent)” value in data set [3] (cGVHD #1, 7.8 nM) was found to be 40.1; in data set [3] (cGVHD #1, 15.6 nM) it was 40.4; in data set [3] (cGVHD #1, 31.3 nM) it was 42.0; in data set [3] (cGVHD #1, 62.5 nM), 48.2; in data set [3] (cGVHD #1, 125 nM), 48.2; in data set [3] (cGVHD #1, 250 nM), 50.7. The “Annexin V+/7AAD− (frequency of parent)” value in data set [3] (cGVHD #1, 500 nM) is 53.6; in data set [3] (cGVHD #1, 1000 nM), 55.0; in data set [3] (cGVHD #2, 7.8 nM), 41.0; in data set [3] (cGVHD #2, 15.6 nM) it was 40.7; in data set [3] (cGVHD #2, 31.3 nM), 39.6; in data set [3] (cGVHD #2, 62.5 nM) it was 41.5. Besides, the “Annexin V+/7AAD− (frequency of parent)” value in data set [3] (cGVHD #2, 125 nM) is 43.9; in data set [3] (cGVHD #2, 250 nM) it was 48.6; in data set [3] (cGVHD #2, 500 nM) it was 48.3; in data set [3] (cGVHD #2, 1000 nM) it was 53.5; in data set [3] (cGVHD #3, 7.8 nM), 19.6; in data set [3] (cGVHD #3, 15.6 nM), 20.0. For the same compound, the “Annexin V+/7AAD− (frequency of parent)” value in data set [3] (cGVHD #3, 31.3 nM) worked out at 20.8; in data set [3] (cGVHD #3, 62.5 nM) it was 21.6; in data set [3] (cGVHD #3, 125 nM), 26.4; in data set [3] (cGVHD #3, 250 nM), 29.5; in data set [3] (cGVHD #3, 500 nM) it was 32.7; in data set [3] (cGVHD #3, 1000 nM), 42.2.

Turning to `Cc1ncc(-c2cn3ccnc3c(Nc3ccc(N4CCOCC4)cc3)n2)cc1N` [6-(5-amino-6-methylpyridin-3-yl)-N-(4-morpholinophenyl)imidazo[1,2-a]pyrazin-8-amine, reference compound], the Hheps CL in the data set with hepatocytes was found to be 13.3 mL/min/kg. Further, in data set [2], the IC50 stood at 250 nM.

As a reminder, the kinetic solubility is the concentration staying in solution when a stock, usually in DMSO, is diluted into the medium. As usually defined, the IC50 is the concentration needed to halve the response being measured. A low value points to greater potency in that assay.
